ChEMBL document CHEMBL1201862, “PubChem BioAssay data set” (2004)
The source made the active and inactive calls.

Experiments:
[1] = ADAM10 protease inhibitors, dose response, selectivity assay for ADAM17 exosite inhibitor project, biochemical, FRET peptide substrate, recombinant human ADAM10 (AID 743259);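 further: ADAM10 enzyme cleaving a FRET peptide substrate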
[2] = molecular target: T1, Disintegrin and metalloproteinase domain-containing protein 17 (Homo sapiens, UniProt P78536); assay: exosite inhibitors of ADAM17, dose response, biochemical (AID 743260)
Beta-galactosidase = Beta-galactosidase (Escherichia coli, UniProt Q8VNN2); assay: Dose response counterscreen for EBI2 assay utilizing the enzyme, b-galactosidase.; type: functional
[3] = molecular target: Induced myeloid leukemia cell differentiation protein Mcl-1 (Homo sapiens, UniProt Q07820); type: functional
[4] = inhibitors of HIV Env-driven cell fusion, dose response, cherry-pick (AID 652057); type: functional, cell-based
[5] = molecular target: T2, Polyadenylate-binding protein 1 (Homo sapiens, UniProt P11940); assay: PABP1 MLLE–PAM2 binding inhibitor potency, dose response, biochemical, fluorescence polarization, FITC-PAM2 peptide (AID 602259); type: functional; conditions: read-out: IC50_Mean
Vero = assay: cells; type: functional; conditions: Chlorocebus sabaeus
[6] = ZM109 Env clade C HIV-1 fusion inhibitors, dose response, HeLa effector, CEM target cells, luciferase, cherry-pick (AID 652058); type: functional, cell-based
[7] = molecular target: T2, Polyadenylate-binding protein 1; assay: PABP1 MLLE–PAM2 interaction inhibitors, dose response, miRNA deadenylation inhibitor project, biochemical, fluorescence polarization, Cy5-PAM2 peptide, secondary (AID 602260); type: functional; conditions: read-out: IC50_Mean
[8] = off-target signal loss in HeLa-CEM21 co-culture – HeLa F-luc CTL cells, cherry-picked, counter-screen for HIV-1 Env fusion inhibitor project, dose response (AID 652040); type: functional, cell-based;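 further: potency for signal decrease marking cytotoxic or nonspecific inhibition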
HEK293 [9] = assay: cells; conditions: Homo sapiens
HEK293 [10] = assay: cells; conditions: Homo sapiens; remark: listed apart in the source
[11] = inhibitors of clade B AD8 Env fusion, dose response, cell-based, cherry-pick (AID 652062); type: functional;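 further: luciferase signal from cell-cell fusion driven by HIV-1 clade B AD8 Env; potency is for inhibitors of fusion seen as a drop in luminescence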
[12] = CEM21 lymphoblast cell cytotoxicity, dose response, cytotoxicity control for viral fusion inhibitor project, CellTiter-Glo luminescence, cherry-picked (AID 652042); type: functional, cell-based;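 further: potency for signal decrease meaning cytotoxicity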
[13] = molecular target: T3, Heat shock factor protein 1 (Mus musculus, UniProt P38532); assay: inhibition of MG132-induced HSE-luciferase signal, confirmation, cell-based, NIH3T3, luminescence, dose retest (AID 2382); type: functional;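 further: NIH3T3 fibroblasts with HSF1-driven luciferase reporter stressed by proteasome inhibitor MG132; luminescence from HSF1-driven luciferase expression after 8 hours of MG132 stress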
T3 sequence (P38532 whole entry): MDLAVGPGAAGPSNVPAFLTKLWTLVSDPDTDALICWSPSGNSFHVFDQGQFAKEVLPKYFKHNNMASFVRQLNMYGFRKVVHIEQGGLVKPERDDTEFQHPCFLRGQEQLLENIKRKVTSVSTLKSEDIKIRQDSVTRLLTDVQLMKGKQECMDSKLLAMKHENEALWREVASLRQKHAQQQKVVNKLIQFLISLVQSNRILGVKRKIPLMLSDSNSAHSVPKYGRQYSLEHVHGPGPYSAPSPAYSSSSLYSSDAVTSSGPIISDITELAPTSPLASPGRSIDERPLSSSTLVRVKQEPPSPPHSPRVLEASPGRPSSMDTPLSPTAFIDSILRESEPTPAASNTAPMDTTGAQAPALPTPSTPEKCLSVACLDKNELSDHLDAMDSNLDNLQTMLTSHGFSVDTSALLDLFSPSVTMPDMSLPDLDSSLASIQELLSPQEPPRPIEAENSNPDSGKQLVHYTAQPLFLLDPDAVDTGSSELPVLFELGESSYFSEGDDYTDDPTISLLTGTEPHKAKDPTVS

Beta-lactamase [14] = molecular target: Beta-lactamase (Salmonella choleraesuis (strain SC-B67), UniProt Q5J463); assay: Epi-absorbance-based counterscreen for selective VIM-2 inhibitors: dose response biochemical high throughput screening assay to identify inhibitors of TEM-1 serine-beta-lactamase.
[15] = molecular target: T4, Fructose-bisphosphate aldolase (Mycobacterium tuberculosis, UniProt P9WQA3); assay: Fluorescence-based biochemical high throughput dose response assay for inhibitors of the fructose-bisphosphate aldolase (FBA) of M. tuberculosis.; type: functional
T4 sequence (P9WQA3 whole entry): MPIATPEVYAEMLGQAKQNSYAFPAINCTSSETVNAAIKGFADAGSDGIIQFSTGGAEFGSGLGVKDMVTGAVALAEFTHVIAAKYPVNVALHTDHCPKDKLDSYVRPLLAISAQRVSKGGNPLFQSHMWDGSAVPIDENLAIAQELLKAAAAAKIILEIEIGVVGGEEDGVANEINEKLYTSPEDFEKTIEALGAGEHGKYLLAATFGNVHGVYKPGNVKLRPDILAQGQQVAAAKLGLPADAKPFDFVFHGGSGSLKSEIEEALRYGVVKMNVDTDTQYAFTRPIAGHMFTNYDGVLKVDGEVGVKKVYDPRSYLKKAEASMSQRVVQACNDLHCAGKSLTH

Beta-lactamase [16] = molecular target: T5, Beta-lactamase (Pseudomonas aeruginosa, UniProt Q79MP6); assay: […] counterscreen for selective VIM-2 inhibitors: dose response biochemical high throughput screening assay to identify inhibitors of IMP-1 metallo-beta-lactamase.
Beta-lactamase [17] = molecular target: T5, Beta-lactamase; assay: IMP-1 metallo-beta-lactamase inhibitors, dose response, selectivity assay for VIM-2 inhibitor project, biochemical, epi-absorbance (AID 1920)
[18] = molecular target: T1, Disintegrin and metalloproteinase domain-containing protein 17; assay: ADAM17 protease inhibitors, dose response, counter-screen for ADAM10 exosite inhibitor project, biochemical, quenched FRET substrate (AID 743253)
[19] = growth suppression of beta-catenin-knockout colon cells, dose response, cell-based, HCT116, human colon tumor (AID 1045); type: functional;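 further: HCT116 colon tumor cells with beta catenin knocked out; cells exposed to compound for 60 hours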
[20] = growth suppression of PTEN-null colon cells, dose response, cell-based, HCT116 PTEN knockout (AID 1047); type: functional;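 further: HCT116 colon tumor cells with PTEN knocked out; cells exposed to compound for 60 hours before readout; potency for loss of cell viability measured by luminescence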
Fatty acid synthase [21] = molecular target: T6, Fatty acid synthase (Homo sapiens, UniProt P49327); assay: FAS thioesterase domain inhibitors, dose response, biochemical, kinetic fluorescence intensity (AID 624326); type: functional;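 further: rate of fluorescence rise from hydrolysis of a fluorogenic O-methyl fluorescein ester substrate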
Fatty acid synthase [22] = molecular target: T6, Fatty acid synthase; assay: FAS thioesterase domain inhibitors, dose response, biochemical, endpoint fluorescence intensity, uHTS hits (AID 624327); type: functional;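 further: fluorescence from hydrolysis of an O-methyl fluorescein acyl ester substrate by the enzyme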

Beta-galactosidase, sequence (Q8VNN2 whole entry): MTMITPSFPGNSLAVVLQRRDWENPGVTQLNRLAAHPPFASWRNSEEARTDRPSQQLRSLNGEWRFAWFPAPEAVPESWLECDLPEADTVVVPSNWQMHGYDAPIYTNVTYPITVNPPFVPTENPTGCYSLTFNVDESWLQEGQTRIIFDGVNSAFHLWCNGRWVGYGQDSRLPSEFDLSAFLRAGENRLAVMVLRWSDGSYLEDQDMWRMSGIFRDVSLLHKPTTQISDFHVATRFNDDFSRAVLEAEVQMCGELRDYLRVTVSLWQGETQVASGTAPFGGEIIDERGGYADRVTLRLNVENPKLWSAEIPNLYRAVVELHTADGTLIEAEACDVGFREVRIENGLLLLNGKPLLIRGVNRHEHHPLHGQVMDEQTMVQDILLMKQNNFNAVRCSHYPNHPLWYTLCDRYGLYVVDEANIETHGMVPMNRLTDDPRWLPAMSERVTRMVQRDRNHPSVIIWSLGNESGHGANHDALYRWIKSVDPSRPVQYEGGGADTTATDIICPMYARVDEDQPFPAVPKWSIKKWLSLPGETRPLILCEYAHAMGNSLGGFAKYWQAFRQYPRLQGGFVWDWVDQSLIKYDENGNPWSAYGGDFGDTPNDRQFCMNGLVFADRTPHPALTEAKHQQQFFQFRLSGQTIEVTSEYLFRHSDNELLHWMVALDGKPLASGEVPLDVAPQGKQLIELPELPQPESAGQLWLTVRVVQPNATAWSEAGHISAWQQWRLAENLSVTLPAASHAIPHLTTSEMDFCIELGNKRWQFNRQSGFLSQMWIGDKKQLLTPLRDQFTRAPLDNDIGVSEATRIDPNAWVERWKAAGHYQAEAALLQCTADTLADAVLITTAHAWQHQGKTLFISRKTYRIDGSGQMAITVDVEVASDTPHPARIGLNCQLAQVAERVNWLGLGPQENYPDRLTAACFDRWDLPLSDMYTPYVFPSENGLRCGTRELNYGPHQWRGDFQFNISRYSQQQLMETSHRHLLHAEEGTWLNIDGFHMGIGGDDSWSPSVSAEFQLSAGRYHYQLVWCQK
T1 sequence (P78536 whole entry, the tested form may be a part): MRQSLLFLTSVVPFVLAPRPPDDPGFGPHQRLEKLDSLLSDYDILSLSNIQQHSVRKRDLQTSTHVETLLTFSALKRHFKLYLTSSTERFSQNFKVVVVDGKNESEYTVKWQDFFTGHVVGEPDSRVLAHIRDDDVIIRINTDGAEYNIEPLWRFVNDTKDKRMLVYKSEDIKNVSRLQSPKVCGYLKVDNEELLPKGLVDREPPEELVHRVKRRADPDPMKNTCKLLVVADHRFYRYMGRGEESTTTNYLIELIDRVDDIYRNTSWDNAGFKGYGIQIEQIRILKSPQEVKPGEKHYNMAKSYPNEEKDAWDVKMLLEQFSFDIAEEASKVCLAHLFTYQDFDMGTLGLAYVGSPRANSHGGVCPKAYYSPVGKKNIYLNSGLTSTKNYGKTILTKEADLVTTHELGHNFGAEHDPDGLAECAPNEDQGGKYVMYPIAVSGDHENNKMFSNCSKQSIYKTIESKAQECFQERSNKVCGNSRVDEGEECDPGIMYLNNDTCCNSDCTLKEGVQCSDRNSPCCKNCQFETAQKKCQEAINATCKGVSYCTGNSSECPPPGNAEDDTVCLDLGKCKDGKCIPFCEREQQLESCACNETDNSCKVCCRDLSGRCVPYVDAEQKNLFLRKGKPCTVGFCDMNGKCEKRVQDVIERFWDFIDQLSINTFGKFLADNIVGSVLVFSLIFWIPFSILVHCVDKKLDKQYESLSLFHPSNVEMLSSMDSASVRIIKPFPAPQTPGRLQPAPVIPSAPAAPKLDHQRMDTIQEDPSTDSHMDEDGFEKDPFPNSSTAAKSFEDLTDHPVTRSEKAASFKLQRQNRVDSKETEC
T2 sequence (P11940 whole entry): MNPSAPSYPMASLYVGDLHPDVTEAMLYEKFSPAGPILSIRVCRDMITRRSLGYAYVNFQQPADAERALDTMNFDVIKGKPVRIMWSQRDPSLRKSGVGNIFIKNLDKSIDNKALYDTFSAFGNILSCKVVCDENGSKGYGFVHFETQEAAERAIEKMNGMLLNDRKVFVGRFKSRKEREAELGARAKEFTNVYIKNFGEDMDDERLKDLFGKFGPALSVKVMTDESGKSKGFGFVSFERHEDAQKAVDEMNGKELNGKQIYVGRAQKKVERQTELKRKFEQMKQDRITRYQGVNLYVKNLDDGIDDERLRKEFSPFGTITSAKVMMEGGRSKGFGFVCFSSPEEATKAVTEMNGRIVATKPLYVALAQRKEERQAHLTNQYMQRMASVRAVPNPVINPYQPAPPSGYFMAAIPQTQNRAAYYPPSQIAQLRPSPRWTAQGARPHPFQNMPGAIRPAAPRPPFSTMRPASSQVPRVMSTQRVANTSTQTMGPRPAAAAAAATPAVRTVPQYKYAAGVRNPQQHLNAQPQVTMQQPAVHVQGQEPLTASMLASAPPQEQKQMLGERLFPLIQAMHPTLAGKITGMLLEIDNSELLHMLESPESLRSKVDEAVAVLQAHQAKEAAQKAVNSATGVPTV
T6 sequence (P49327 whole entry, the tested form may be a part): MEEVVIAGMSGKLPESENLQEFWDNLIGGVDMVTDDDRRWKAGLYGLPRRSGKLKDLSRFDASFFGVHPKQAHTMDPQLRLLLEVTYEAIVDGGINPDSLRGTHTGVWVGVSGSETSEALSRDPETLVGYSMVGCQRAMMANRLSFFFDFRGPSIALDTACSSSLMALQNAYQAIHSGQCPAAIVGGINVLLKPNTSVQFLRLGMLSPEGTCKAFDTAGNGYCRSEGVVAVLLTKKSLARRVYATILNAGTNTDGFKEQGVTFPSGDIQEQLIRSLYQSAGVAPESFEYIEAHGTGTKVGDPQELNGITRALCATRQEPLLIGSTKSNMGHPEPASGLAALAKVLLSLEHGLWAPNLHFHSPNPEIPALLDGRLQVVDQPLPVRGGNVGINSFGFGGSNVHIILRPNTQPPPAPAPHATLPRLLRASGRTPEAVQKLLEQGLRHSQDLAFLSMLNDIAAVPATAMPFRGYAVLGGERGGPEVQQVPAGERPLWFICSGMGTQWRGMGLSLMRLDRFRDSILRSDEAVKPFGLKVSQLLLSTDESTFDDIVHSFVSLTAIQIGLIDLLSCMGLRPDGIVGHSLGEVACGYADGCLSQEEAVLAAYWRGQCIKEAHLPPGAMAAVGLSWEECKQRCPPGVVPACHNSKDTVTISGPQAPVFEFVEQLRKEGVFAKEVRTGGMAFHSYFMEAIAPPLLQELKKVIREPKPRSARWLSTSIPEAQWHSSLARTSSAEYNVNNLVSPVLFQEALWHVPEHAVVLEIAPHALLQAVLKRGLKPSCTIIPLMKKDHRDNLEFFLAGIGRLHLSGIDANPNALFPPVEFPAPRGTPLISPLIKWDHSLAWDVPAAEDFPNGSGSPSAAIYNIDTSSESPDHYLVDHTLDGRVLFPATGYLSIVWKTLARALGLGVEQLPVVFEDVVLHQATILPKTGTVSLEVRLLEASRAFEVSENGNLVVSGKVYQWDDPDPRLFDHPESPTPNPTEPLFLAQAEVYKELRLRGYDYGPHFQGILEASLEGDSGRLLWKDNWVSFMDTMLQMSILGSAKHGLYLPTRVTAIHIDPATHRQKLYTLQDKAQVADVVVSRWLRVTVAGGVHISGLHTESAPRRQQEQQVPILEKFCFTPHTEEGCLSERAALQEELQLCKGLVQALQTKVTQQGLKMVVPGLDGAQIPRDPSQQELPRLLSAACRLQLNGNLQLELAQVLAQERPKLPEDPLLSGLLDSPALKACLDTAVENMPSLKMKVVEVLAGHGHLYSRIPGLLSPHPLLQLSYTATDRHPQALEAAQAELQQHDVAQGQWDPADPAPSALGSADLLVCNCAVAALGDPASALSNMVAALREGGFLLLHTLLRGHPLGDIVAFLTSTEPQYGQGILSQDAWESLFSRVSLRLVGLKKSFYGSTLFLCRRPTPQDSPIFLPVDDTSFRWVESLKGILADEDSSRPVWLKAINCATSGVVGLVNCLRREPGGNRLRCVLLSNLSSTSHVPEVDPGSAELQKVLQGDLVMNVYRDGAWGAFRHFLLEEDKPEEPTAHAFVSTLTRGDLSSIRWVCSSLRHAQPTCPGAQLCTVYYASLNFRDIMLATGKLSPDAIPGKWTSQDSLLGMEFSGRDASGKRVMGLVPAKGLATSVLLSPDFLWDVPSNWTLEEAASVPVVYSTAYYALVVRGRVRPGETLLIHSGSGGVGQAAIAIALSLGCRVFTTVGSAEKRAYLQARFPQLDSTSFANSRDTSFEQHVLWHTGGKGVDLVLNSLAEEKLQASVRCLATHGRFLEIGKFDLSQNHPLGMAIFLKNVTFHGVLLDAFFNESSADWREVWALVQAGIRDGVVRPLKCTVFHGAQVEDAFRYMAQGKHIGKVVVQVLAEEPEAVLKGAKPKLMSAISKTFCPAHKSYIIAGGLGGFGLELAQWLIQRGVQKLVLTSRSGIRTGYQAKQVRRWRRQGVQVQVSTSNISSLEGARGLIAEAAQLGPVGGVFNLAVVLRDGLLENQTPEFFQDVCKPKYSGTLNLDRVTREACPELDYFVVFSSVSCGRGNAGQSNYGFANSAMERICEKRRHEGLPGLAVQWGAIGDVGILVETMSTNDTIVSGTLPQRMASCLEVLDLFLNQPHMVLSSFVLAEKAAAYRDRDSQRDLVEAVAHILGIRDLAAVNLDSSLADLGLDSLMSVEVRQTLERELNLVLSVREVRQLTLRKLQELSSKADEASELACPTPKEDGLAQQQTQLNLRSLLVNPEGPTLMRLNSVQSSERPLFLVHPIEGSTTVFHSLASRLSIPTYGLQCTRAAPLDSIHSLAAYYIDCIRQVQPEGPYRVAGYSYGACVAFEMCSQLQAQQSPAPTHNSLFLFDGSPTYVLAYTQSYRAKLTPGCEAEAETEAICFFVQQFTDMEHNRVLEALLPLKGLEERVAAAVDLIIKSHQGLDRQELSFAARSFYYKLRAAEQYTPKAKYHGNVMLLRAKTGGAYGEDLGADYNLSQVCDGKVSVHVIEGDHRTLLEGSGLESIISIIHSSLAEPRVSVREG

For `C=CCn1c(S)nnc1-c1csc2c1CCC(C)C2` (stereo not drawn), the IC50 [1] was > 69.4 µM (inactive).

With `COc1ccc(N2CCC(CNC(=S)Nc3cccc(OC)c3)C2)cc1` (stereo not drawn) the IC50 [2] was > 69.5 µM (inactive).

In the case of `COc1ccc(N2CCN(C(=O)c3cc(=O)c4cc(Cl)ccc4o3)CC2)cc1`, the IC50 (Beta-galactosidase) is reported as > 80 µM (inactive).

In the case of `CCOC(=O)c1c(CSc2ccc(C)cc2)n(C)c2cc(Br)c(O)c(CN(C)C)c12`, the IC50 [3] is reported as 2.7 µM (active), the AC50 [4] is reported as 0.342 µM (active) and the IC50 [5] is reported as > 66 µM (inactive). The CC50 (Vero) was > 25 µM (active), the AC50 [6] was 0.465 µM (active) and the IC50 [7] was > 66 µM (inactive). The AC50 [8] was 0.452 µM (active), the EC50 (HEK293 [9]) was > 59.6 µM (inactive) and the EC50 (HEK293 [10]) was > 59.6 µM (inactive). The AC50 [11] was 1.32 µM (active) and the AC50 [12] was 58.8 µM (active).

With `CCOc1ccc(NC(S)=Nc2ccc(OC(F)(F)F)cc2)cc1` the IC50 (Beta-galactosidase) was > 80 µM (inactive) and the EC50 [13] was > 195 µM (not active).

In the case of `CCc1cc(=O)oc2c(C)c(OCC(=O)N3CCC[C@@H]3C(=O)O)ccc12`, the IC50 (Beta-lactamase [14]) is reported as > 59.6 µM (inactive), the IC50 [15] is reported as 1.65 µM (active) and the IC50 (Beta-lactamase [16]) is reported as > 59.6 µM (inactive). For the same compound, the IC50 (Beta-lactamase [17]) was > 59.6 µM (inactive).

For `Fc1c(F)c(C(F)(F)F)c(F)c(F)c1N/N=C\c1cccs1`, the IC50 [18] was > 69.5 µM (inactive), the EC50 [19] was 43.1 µM (active) and the EC50 [20] was 109 µM (active). The IC50 (Fatty acid synthase [21]) was 10.2 µM (active) and the IC50 (Fatty acid synthase [22]) was 10.4 µM (active).

With `O=C(c1cc2cc(Cl)ccc2[nH]1)N1CCN(c2ccc(F)cc2)CC1` the IC50 (Beta-galactosidase) was > 80 µM (inactive).

For `O=C1CCCCC1C(Nc1ccc(Cl)cc1)c1ccccc1` (stereo not drawn), the IC50 [1] was 34.3 µM (inactive) and the IC50 [2] was > 69.5 µM (inactive).
